How the values were obtained:
[1] = system: HCT-116; assay: Induction of apoptosis in human HCT116 cells assessed as early apoptotic cells at 6.25 uM after 24 hrs by Annexin V-FITC/propidium iodide staining based flow cytometry (reference value: 2.24%); format: functional
[2] = Inhibition of mTORC1 (unknown origin); set-up: species or system Homo sapiens
[3] = system: HCT-116; assay: Induction of apoptosis in human HCT116 cells after 24 hrs by Annexin V-FITC/propidium iodide staining based flow cytometry; format: functional, cell-based
[4] = system: HCT-116; assay: Induction of apoptosis in human HCT116 cells assessed as early apoptotic cells at 25 uM after 24 hrs by Annexin V-FITC/propidium iodide staining based flow cytometry (reference value: 2.24%); format: functional
[5] = system: HCT-116; assay: Induction of apoptosis in human HCT116 cells assessed as late apoptotic cells at 6.25 uM after 24 hrs by Annexin V-FITC/propidium iodide staining based flow cytometry (reference value: 7.2%); format: functional
[6] = target: Phosphatidylinositol 4,5-bisphosphate 3-kinase catalytic subunit beta isoform (Homo sapiens, UniProt P42338); assay: Inhibition of PI3K-beta (unknown origin) after 40 mins by Kinase-Glo assay
Chain of Phosphatidylinositol 4,5-bisphosphate 3-kinase catalytic subunit beta isoform (P42338 whole entry, canonical isoform): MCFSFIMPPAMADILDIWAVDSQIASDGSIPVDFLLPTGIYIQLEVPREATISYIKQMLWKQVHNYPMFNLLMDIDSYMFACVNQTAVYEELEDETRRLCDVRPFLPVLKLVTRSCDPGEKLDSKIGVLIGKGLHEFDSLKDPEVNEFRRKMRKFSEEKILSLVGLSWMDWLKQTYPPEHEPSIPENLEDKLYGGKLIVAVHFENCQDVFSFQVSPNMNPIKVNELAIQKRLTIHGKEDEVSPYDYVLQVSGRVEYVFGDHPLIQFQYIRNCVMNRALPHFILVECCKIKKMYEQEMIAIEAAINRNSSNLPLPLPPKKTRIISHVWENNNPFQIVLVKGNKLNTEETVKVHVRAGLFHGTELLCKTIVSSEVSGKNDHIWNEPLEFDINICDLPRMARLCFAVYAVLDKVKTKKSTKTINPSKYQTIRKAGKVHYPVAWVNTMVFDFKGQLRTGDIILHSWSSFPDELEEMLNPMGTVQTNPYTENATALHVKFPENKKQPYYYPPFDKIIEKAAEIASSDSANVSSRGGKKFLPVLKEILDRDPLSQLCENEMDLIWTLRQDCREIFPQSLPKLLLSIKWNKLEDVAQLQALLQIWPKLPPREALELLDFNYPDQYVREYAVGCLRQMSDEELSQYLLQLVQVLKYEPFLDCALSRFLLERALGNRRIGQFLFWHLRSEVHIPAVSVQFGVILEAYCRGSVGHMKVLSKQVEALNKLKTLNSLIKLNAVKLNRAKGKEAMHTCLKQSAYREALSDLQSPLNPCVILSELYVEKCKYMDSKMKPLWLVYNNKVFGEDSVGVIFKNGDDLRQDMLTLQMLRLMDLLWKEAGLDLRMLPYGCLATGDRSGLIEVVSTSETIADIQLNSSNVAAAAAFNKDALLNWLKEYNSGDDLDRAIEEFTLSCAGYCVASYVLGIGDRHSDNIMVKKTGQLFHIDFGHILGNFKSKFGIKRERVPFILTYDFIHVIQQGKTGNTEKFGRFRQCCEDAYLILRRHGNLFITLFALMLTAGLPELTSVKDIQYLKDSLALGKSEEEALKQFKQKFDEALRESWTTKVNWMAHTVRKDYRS

[7] = system: HCT-116; assay: Cell cycle arrest in human HCT116 cells assessed as accumulation at G2/M-phase at 5 uM after 24 hrs by propidium iodide staining based flow cytometry (reference value: 31.47%); format: functional
[8] = system: HCT-116; assay: Induction of apoptosis in human HCT116 cells assessed as necrotic cells at 6.25 uM after 24 hrs by Annexin V-FITC/propidium iodide staining based flow cytometry (reference value: […]); format: functional
[9] = system: HCT-116; assay: Induction of apoptosis in human HCT116 cells assessed as live cells at 12.5 uM after 24 hrs by Annexin V-FITC/propidium iodide staining based flow cytometry (reference value: 89.89%); format: functional
[10] = system: MCF7; assay: cells; conditions: Homo sapiens, MCF7, 72 h
Description: Antiproliferative activity against human MCF7 cells after 72 hrs by CCK8 assay

[11] = system: HCT-116; assay: Induction of apoptosis in human HCT116 cells assessed as late apoptotic cells at 12.5 uM after 24 hrs by Annexin V-FITC/propidium iodide staining based flow cytometry (reference value: 7.2%); format: functional
[12] = system: HCT-116; assay: Cell cycle arrest in human HCT116 cells assessed as accumulation at S-phase at 10 uM after 24 hrs by propidium iodide staining based flow cytometry (reference value: 29.81%); format: functional
[13] = system: HCT-116; assay: Induction of apoptosis in human HCT116 cells assessed as necrotic cells at 25 uM after 24 hrs by Annexin V-FITC/propidium iodide staining based flow cytometry (reference value: […]); format: functional
[14] = system: HCT-116; assay: Induction of apoptosis in human HCT116 cells assessed as increase in active caspase-8 protein expression after 72 hrs by Western blot analysis; format: functional, cell-based
[15] = target: T1, Phosphatidylinositol 4,5-bisphosphate 3-kinase catalytic subunit delta isoform (Homo sapiens, UniProt O00329); assay: Inhibition of PI3K-delta (unknown origin) after 40 mins by Kinase-Glo assay
T1 sequence (O00329 whole entry): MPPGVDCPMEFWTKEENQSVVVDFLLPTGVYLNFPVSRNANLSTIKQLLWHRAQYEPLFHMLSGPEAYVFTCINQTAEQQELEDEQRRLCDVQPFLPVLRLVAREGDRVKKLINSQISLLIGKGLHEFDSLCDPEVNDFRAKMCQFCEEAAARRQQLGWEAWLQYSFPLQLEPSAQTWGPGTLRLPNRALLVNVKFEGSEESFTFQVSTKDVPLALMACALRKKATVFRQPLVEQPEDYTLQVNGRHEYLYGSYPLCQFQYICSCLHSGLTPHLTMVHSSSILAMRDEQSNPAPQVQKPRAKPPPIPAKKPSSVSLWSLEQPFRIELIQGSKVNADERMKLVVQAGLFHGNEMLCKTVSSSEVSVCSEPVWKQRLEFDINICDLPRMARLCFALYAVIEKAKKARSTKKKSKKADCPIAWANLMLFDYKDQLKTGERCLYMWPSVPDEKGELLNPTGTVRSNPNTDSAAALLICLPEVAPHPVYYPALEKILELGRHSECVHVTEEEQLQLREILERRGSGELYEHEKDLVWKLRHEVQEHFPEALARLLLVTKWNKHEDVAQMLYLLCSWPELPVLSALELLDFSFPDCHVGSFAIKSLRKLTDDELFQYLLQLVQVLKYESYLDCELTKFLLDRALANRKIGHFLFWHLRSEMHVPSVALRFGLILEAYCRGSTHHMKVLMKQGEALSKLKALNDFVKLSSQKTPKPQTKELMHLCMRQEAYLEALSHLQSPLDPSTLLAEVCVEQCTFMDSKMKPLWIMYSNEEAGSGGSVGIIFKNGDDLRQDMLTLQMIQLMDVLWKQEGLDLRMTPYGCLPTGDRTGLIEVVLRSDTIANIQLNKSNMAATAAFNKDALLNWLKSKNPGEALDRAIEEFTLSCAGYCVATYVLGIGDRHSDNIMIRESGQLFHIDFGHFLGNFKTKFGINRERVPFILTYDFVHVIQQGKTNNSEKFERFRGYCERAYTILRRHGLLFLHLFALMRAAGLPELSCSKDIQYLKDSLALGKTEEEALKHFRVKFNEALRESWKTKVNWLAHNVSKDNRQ

[16] = system: HCT-116; assay: Cell cycle arrest in human HCT116 cells assessed as accumulation at G1 phase at 5 uM after 24 hrs by propidium iodide staining based flow cytometry (reference value: 38.72%); format: functional
[17] = system: HCT-116; assay: cells; conditions: Homo sapiens, HCT-116, 72 h
[18] = system: HCT-116; assay: Cell cycle arrest in human HCT116 cells assessed as accumulation at G1 phase after 24 hrs by propidium iodide staining based flow cytometry; format: functional
[19] = system: HCT-116; assay: Induction of apoptosis in human HCT116 cells assessed as increase in active caspase-9 protein expression after 72 hrs by Western blot analysis; format: functional, cell-based
[20] = system: HCT-116; assay: Cell cycle arrest in human HCT116 cells assessed as accumulation at S-phase at 20 uM after 24 hrs by propidium iodide staining based flow cytometry (reference value: 29.81%); format: functional
[21] = target: PI3-kinase p110-alpha/p85-alpha (Homo sapiens, UniProt P42336); assay: Inhibition of recombinant full length PI3K p110alpha/p85alpha (unknown origin) expressed in baculovirus infected sf9 cells using PIP2 as substrate preincubated for 10 mins followed by ATP addition and measured after 45 mins by HTRF assay
Chain of PI3-kinase p110-alpha/p85-alpha (Homo sapiens, UniProt P42336) (P27986 whole entry): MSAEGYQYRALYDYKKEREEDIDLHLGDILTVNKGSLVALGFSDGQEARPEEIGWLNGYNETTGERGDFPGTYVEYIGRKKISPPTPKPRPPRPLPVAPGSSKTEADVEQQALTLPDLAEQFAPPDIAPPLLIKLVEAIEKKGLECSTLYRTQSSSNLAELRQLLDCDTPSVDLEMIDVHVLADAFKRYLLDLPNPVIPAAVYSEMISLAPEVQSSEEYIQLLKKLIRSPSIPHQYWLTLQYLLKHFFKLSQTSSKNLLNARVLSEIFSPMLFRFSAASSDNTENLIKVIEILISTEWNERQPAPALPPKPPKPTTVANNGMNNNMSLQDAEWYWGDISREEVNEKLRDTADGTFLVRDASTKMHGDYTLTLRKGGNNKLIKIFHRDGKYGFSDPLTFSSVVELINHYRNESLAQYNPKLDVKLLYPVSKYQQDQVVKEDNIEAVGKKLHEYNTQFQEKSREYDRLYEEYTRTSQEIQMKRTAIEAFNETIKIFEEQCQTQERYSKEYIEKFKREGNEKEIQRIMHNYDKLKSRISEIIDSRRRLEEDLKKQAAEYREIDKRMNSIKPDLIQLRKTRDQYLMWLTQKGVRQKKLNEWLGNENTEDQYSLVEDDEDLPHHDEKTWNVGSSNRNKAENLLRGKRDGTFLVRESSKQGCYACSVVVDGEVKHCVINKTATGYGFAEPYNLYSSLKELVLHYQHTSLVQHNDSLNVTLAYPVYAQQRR
Chain of PI3-kinase p110-alpha/p85-alpha (Homo sapiens, UniProt P42336) (P42336 whole entry): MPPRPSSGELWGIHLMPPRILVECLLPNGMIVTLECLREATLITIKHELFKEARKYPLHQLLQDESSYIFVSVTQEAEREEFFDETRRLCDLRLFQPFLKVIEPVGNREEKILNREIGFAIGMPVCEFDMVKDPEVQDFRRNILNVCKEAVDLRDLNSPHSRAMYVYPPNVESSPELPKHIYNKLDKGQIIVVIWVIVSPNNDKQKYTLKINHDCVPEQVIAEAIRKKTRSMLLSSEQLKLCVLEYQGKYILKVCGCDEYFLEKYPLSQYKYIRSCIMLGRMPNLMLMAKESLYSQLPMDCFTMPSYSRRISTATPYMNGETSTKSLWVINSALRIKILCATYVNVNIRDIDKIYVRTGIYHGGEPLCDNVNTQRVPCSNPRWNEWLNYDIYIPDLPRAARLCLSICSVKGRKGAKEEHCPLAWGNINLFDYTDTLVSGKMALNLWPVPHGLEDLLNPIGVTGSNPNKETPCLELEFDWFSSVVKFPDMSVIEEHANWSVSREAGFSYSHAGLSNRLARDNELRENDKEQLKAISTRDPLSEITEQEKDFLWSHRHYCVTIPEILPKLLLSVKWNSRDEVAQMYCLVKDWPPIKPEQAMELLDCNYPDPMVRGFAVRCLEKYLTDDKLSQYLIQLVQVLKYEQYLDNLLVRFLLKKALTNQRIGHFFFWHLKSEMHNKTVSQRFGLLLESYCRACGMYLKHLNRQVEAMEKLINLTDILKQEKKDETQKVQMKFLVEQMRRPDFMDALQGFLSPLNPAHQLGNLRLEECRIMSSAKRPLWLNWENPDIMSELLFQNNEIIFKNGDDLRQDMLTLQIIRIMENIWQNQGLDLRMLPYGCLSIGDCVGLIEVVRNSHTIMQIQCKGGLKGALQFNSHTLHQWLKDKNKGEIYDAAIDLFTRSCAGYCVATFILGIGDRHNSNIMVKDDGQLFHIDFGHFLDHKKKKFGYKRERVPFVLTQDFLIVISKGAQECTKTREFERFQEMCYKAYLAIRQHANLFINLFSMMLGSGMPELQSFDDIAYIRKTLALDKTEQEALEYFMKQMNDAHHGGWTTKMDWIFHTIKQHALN

[22] = system: HCT-116; assay: Induction of apoptosis in human HCT116 cells assessed as live cells at 6.25 uM after 24 hrs by Annexin V-FITC/propidium iodide staining based flow cytometry (reference value: 89.89%); format: functional
[23] = system: HCT-116; assay: Cell cycle arrest in human HCT116 cells assessed as accumulation at S-phase at 5 uM after 24 hrs by propidium iodide staining based flow cytometry (reference value: 29.81%); format: functional
[24] = system: HCT-116; assay: Induction of apoptosis in human HCT116 cells assessed as necrotic cells at 12.5 uM after 24 hrs by Annexin V-FITC/propidium iodide staining based flow cytometry (reference value: […]); format: functional
[25] = system: HCT-116; assay: Cell cycle arrest in human HCT116 cells assessed as accumulation at G2/M-phase at 20 uM after 24 hrs by propidium iodide staining based flow cytometry (reference value: 31.47%); format: functional
[26] = system: HCT-116; assay: Cell cycle arrest in human HCT116 cells assessed as accumulation at G1 phase at 20 uM after 24 hrs by propidium iodide staining based flow cytometry (reference value: 38.72%); format: functional
[27] = system: HCT-116; assay: Induction of apoptosis in human HCT116 cells assessed as live cells at 25 uM after 24 hrs by Annexin V-FITC/propidium iodide staining based flow cytometry (reference value: 89.89%); format: functional
[28] = system: HCT-116; assay: Induction of apoptosis in human HCT116 cells assessed as early apoptotic cells at 12.5 uM after 24 hrs by Annexin V-FITC/propidium iodide staining based flow cytometry (reference value: 2.24%); format: functional
[29] = system: HCT-116; assay: Induction of apoptosis in human HCT116 cells assessed as late apoptotic cells at 25 uM after 24 hrs by Annexin V-FITC/propidium iodide staining based flow cytometry (reference value: 7.2%); format: functional
[30] = system: HCT-116; assay: Induction of apoptosis in human HCT116 cells assessed as increase in active caspase-3 protein expression after 72 hrs by Western blot analysis; format: functional, cell-based
[31] = system: HCT-116; assay: Cell cycle arrest in human HCT116 cells assessed as accumulation at G1 phase at 10 uM after 24 hrs by propidium iodide staining based flow cytometry (reference value: 38.72%); format: functional
[32] = target: PI3-kinase p110-alpha/p85-alpha (Homo sapiens, UniProt P42336, H1047R); assay: Inhibition of recombinant full length PI3K p85alpha/p110alpha H1047R mutant (unknown origin) expressed in baculovirus infected sf9 cells using PIP2 as substrate preincubated for 10 mins followed by ATP addition and measured after 45 mins by HTRF assay
Chain of PI3-kinase p110-alpha/p85-alpha (Homo sapiens, UniProt P42336, H1047R) (P42336 whole entry H1047R, looked up): as the sequence (P42336 whole entry) above, with H1047R counted along it

[33] = system: HCT-116; assay: Cell cycle arrest in human HCT116 cells assessed as accumulation at G2/M-phase at 10 uM after 24 hrs by propidium iodide staining based flow cytometry (reference value: 31.47%); format: functional
[34] = target: Phosphatidylinositol 4,5-bisphosphate 3-kinase catalytic subunit gamma isoform (Homo sapiens, UniProt P48736); assay: Inhibition of PI3K-gamma (unknown origin) after 40 mins by Kinase-Glo assay
Chain of Phosphatidylinositol 4,5-bisphosphate 3-kinase catalytic subunit gamma isoform (P48736 whole entry, canonical isoform): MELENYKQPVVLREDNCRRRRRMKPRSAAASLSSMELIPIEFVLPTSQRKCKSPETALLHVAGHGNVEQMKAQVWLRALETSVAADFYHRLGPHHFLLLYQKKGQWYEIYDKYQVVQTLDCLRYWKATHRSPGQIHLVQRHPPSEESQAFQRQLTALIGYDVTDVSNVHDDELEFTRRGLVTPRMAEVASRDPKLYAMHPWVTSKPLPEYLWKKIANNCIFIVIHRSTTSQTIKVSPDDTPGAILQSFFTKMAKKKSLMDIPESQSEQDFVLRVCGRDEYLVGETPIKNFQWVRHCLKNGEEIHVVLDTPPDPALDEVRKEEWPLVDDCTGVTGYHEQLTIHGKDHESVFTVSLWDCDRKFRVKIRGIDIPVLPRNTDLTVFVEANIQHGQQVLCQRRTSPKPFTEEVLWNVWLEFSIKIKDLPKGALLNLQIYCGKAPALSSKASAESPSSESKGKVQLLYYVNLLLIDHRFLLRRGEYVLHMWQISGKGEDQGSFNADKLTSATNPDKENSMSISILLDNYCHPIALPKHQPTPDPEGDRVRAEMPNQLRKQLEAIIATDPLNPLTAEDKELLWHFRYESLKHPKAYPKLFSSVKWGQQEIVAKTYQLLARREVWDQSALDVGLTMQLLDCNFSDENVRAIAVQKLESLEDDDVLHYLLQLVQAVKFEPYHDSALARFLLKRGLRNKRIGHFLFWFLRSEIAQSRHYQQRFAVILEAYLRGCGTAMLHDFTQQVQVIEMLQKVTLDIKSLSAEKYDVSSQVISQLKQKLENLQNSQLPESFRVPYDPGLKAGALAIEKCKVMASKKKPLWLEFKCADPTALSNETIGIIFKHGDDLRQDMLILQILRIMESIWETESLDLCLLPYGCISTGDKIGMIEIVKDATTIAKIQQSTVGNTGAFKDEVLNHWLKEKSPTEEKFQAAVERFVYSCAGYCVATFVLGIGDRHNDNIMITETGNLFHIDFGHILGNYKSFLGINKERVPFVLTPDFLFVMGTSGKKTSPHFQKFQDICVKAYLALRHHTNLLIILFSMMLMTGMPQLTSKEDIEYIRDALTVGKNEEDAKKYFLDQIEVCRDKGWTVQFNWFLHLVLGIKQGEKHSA

In the case of `Fc1ccccc1-c1cc2nc(-c3ccco3)c(-c3ccco3)nc2cc1Br`, the Activity [1] is reported as 3.57%, the EC50 [2] is reported as greater than 30 µM and the Activity [3] is reported as “Dose-dependent effect”. It also gave an Activity [4] of 13.97%, an Activity [5] of 10.63% and an EC50 [6] of 3.34 µM. It also gave an Activity [7] of 32.16%, an Activity [8] of 1.01% and an Activity [9] of 80.29%. For the same compound, the IC50 [10] was 13.7 µM, the Activity [11] was 15.72% and the Activity [12] was 21.99%. The Activity [13] was 0.88%, the Activity [14] was “Dose-dependent effect” and the EC50 [15] was 15.7 µM. The Activity [16] was 44.42%, the IC50 [17] was 11.2 µM and the Activity [18] was “Dose-dependent effect”. For the same compound, the Activity [19] was “Dose-dependent effect”, the Activity [20] was 18.28% and the EC50 [21] was 0.093 µM. For the same compound, the Activity [22] was 84.79%, the Activity [23] was 24.42% and the Activity [24] was 0.96%. For the same compound, the Activity [25] was 11%, the Activity [26] was 70.72% and the Activity [27] was 61.38%. The Activity [28] was 3.03%, the Activity [29] was 23.77% and the Activity [30] was “Dose-dependent effect”. It also gave an Activity [31] of 57.67%, an EC50 [32] of 0.137 µM and an Activity [33] of 20.34%. It also gave an EC50 [34] of 9.89 µM.

From ChEMBL document CHEMBL4270587, “Difuran-substituted quinoxalines as a novel class of PI3Kα H1047R mutant inhibitors: Synthesis, biological evaluation and structure-activity relationship” (Eur J Med Chem, 2018)
